Experimental data taken from ChEMBL document CHEMBL5528028, “Discovery of benzopyridone cyanoacetates as new type of potential broad-spectrum antibacterial candidates” (Eur J Med Chem, 2024).
≈ marks a conversion by molar mass, not a printed value. Calls of active or inactive are those of the source. No cut-off for these calls is given here.

What was measured:
Klebsiella pneumoniae [1] = test: Anti-biofilm activity against Klebsiella pneumonia assessed as relative biofilm clearance rate by crystal violet staining based assay; type: functional, organism-based
Cell membrane [2] = test: Induction of inner membrane permeability in Staphylococcus aureus ATCC 29213 assessed as increase in fluorescence intensity by propidium iodide uptake based microscopic imaging assay; type: cell membranes
Klebsiella pneumoniae [3] = test: Antibacterial activity against Klebsiella pneumonia assessed as morphological changes by measuring shrunken and cracked cells at 4 times of MIC by SEM microscopic analysis; type: functional, organism-based
Staphylococcus aureus [4] = test: Induction of ROS generation in Staphylococcus aureus ATCC 29213 assessed as increase in fluorescence intensity by DCFH-DA based microscopic analysis; type: functional, organism-based
Cell membrane [5] = test: Induction of disruption of membrane integrity in Klebsiella pneumonia assessed as leakage of intracellular proteins by Acid Blue 90 based assay; type: cell membranes; details: Klebsiella pneumoniae
Staphylococcus aureus [6] = test: Antibacterial activity against Staphylococcus aureus ATCC 29213 assessed as morphological changes by measuring shrunken and cracked cells at 4 times of MIC by SEM microscopic analysis; type: functional, organism-based
Cell membrane [7] = test: Induction of cytoplasmic membrane depolarization in Klebsiella pneumonia assessed as increase in fluorescence intensity at 2 times of MIC measured upto 40 mins by DiSC35 dye based fluorescence method; type: cell membranes; details: Klebsiella pneumoniae
Staphylococcus aureus [8] = test: Induction of resistance development in Staphylococcus aureus ATCC 29213 assessed as after 20 passages measured upto 4.5 times of MIC; type: functional
Klebsiella pneumoniae [9] = test: Induction of ROS generation in Klebsiella pneumonia assessed as increase in fluorescence intensity by DCFH-DA based microscopic analysis; type: functional, organism-based
Klebsiella pneumoniae [10] = test: Induction of ROS generation in Klebsiella pneumonia assessed as loss of GSH activity by Ellmans method; type: functional, organism-based
Staphylococcus aureus [11] = test: Anti-biofilm activity against Staphylococcus aureus ATCC 29213 assessed as relative biofilm clearance rate by crystal violet staining based assay; type: functional, organism-based
Staphylococcus aureus [12] = test: Bactericidal activity against Staphylococcus aureus ATCC 29213 assessed as time dependent killing at 4 times of MIC measured at 8 hrs; type: functional, organism-based
Cell membrane [13] = test: Induction of outer membrane permeability in Klebsiella pneumonia assessed as increase in fluorescence intensity at 2 times of MIC by N-phenyl naphthylamine (NPN) dye based assay; type: cell membranes; details: Klebsiella pneumoniae
Staphylococcus aureus [14] = test: Antibacterial activity against Staphylococcus aureus ATCC 29213 assessed as decrease in relative metabolic activity at 4 times of MIC by Alamar Blue assays; type: functional, organism-based
Klebsiella pneumoniae [15] = test: Antibacterial activity against Klebsiella pneumonia assessed as decrease in relative metabolic activity at 4 times of MIC by Alamar Blue assays; type: functional, organism-based
Cell membrane [16] = test: Induction of disruption of membrane integrity in Staphylococcus aureus ATCC 29213 assessed as leakage of intracellular proteins by Acid Blue 90 based assay; type: cell membranes
Klebsiella pneumoniae [17] = test: Induction of resistance development in Klebsiella pneumonia assessed as after 20 passages measured upto 4.5 times of MIC; type: functional
Klebsiella pneumoniae [18] = test: Bactericidal activity against Klebsiella pneumonia assessed as time dependent killing at 4 times of MIC measured at 8 hrs; type: functional, organism-based
Cell membrane [19] = test: Induction of cytoplasmic membrane depolarization in Staphylococcus aureus ATCC 29213 assessed as increase in fluorescence intensity at 2 times of MIC measured upto 40 mins by DiSC35 dye based fluorescence method; type: cell membranes
Calf thymus DNA [20] = test: Binding affinity to calf thymus DNA assessed as change in absorption by UV-Vis absorption spectra analysis; type: nucleic-acid assay; details: Bos taurus
Calf thymus DNA [21] = test: Induction of calf thymus DNA double helix loss assessed as reduction in fluorescence intensity at 525 nm wavelength by acridine orange competition based assay; type: nucleic-acid assay; details: Bos taurus
Cell membrane [22] = test: Induction of inner membrane permeability in Klebsiella pneumonia assessed as increase in fluorescence intensity by propidium iodide uptake based microscopic imaging assay; type: cell membranes; details: Klebsiella pneumoniae
Staphylococcus aureus [23] = test: Induction of ROS generation in Staphylococcus aureus ATCC 29213 assessed as loss of GSH activity by Ellmans method; type: functional, organism-based
Acinetobacter baumannii = test: Antibacterial activity against Acinetobacter baumannii assessed growth inhibition by micro broth dilution method; type: functional
Enterococcus faecalis = test: Antibacterial activity against Enterococcus faecalis assessed growth inhibition by micro broth dilution method; type: functional
Klebsiella pneumoniae [24] = test: Antibacterial activity against Klebsiella pneumonia assessed growth inhibition by micro broth dilution method; type: functional
Pseudomonas aeruginosa [25] = test: Antibacterial activity against Pseudomonas aeruginosa assessed growth inhibition by micro broth dilution method; type: functional
Staphylococcus aureus [26] = test: Antibacterial activity against Staphylococcus aureus ATCC 25923 assessed growth inhibition by micro broth dilution method; type: functional
Staphylococcus aureus [27] = test: Antibacterial activity against Staphylococcus aureus assessed growth inhibition by micro broth dilution method; type: functional
Staphylococcus aureus [28] = test: Antibacterial activity against Staphylococcus aureus ATCC 29213 assessed growth inhibition by micro broth dilution method; type: functional
[29] = Hemolytic activity in human RBC assessed as hemolytic rate incubated measured upto 64 ug/ml; type: toxicity, cell-based, Erythrocyte; details: human red blood cells (erythrocytes), up to 64 µg/mL, read-out: Activity
Staphylococcus aureus [30] = test: Antibacterial activity against methicillin-resistant Staphylococcus aureus assessed growth inhibition by micro broth dilution method; type: functional
Pseudomonas aeruginosa [31] = test: Antibacterial activity against Pseudomonas aeruginosa ATCC 27853 assessed growth inhibition by micro broth dilution method; type: functional
Escherichia coli [32] = test: Antibacterial activity against Escherichia coli assessed growth inhibition by micro broth dilution method; type: functional
Escherichia coli [33] = test: Antibacterial activity against Escherichia coli ATCC 25922 assessed growth inhibition by micro broth dilution method; type: functional

CCCCCCCCn1cc(C(=O)OCC)c(=O)c2cc(F)c(C(C#N)C(=O)OCC)cc21 (stereo unspecified) [listing 1 of 2 here]
Activity (Klebsiella pneumoniae [1]): Dose-Dependent Effect
Activity (Cell membrane [2]): Dose-Dependent Effect
Activity (Klebsiella pneumoniae [3]): Active
Activity (Staphylococcus aureus [4]): Dose-Dependent Effect
Activity (Cell membrane [5]): Dose-Dependent Effect
Activity (Staphylococcus aureus [6]): Active
Activity (Cell membrane [7]): Active
Activity (Cell membrane [7]; DISRUPTING AGENT): Active
Activity (Staphylococcus aureus [8]): Active
Activity (Klebsiella pneumoniae [9]): Dose-Dependent Effect
Activity (Klebsiella pneumoniae [10]): Dose-Dependent Effect
Activity (Staphylococcus aureus [11]): Dose-Dependent Effect
Activity (Staphylococcus aureus [12]): Active
Activity (Cell membrane [13]): Dose-Dependent Effect
Activity (Staphylococcus aureus [14]): Active
Activity (Klebsiella pneumoniae [15]): Active
Activity (Cell membrane [16]): Dose-Dependent Effect
Activity (Klebsiella pneumoniae [17]): Active
Activity (Klebsiella pneumoniae [18]): Active
Activity (Cell membrane [19]): Active
Activity (Calf thymus DNA [20]): Active
Activity (Calf thymus DNA [21]): Active
Activity (Cell membrane [22]): Dose-Dependent Effect
Activity (Staphylococcus aureus [23]): Dose-Dependent Effect

CCCCCCCCn1cc(C(=O)OCC)c(=O)c2cc(F)c(C(C#N)C(=O)OCC)cc21 (stereo unspecified) [listing 2 of 2 here]
MIC (Acinetobacter baumannii): 0.5 µg/mL (≈ 1.09 µM)
MIC (Enterococcus faecalis): 4 µg/mL (≈ 8.72 µM)
MIC (Klebsiella pneumoniae [24]): 0.5 µg/mL (≈ 1.09 µM)
MIC (Pseudomonas aeruginosa [25]): 0.5 µg/mL (≈ 1.09 µM)
MIC (Staphylococcus aureus [26]): 1 µg/mL (≈ 2.18 µM)
MIC (Staphylococcus aureus [27]): 8 µg/mL (≈ 17.4 µM)
MIC (Staphylococcus aureus [28]): 0.5 µg/mL (≈ 1.09 µM)
hemolysis [29]: 50%
MIC (Staphylococcus aureus [30]): 8 µg/mL (≈ 17.4 µM)
MIC (Pseudomonas aeruginosa [31]): 0.5 µg/mL (≈ 1.09 µM)
MIC (Escherichia coli [32]): 2 µg/mL (≈ 4.36 µM)
MIC (Escherichia coli [33]): 2 µg/mL (≈ 4.36 µM)
